According to US20090062537A1, “N-Formyl Hydrozyamine Compounds” (priority 2006, published 2009):
Residue numbers refer to the chain shown, from its start. Converted amounts (≈) assume the structure as drawn.

Tests used:
[1] = target: T1, Streptococcus pneumoniae peptide deformylase G70D mutant (Streptococcus pneumoniae serotype 4, UniProt Q9F2F0, G70D); assay: Inhibition of S. pneumoniae peptide deformylase activity, G70D mutant enzyme; format: biochemical; details: PDF G70D
T1 sequence (Q9F2F0 1-203 G70D): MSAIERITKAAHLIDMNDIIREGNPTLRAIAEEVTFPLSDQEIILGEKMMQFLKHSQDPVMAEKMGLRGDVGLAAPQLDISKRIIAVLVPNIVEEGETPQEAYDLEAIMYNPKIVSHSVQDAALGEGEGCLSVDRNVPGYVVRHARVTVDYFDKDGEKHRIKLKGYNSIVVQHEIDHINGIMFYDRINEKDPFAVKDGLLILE
Method: (§1) A PDF/FDH coupled assay (Lazennec et al., Anal. Biochem., Vol. 224, pp. 180-182 (1997)) is used. In this coupled assay, the formate released by PDF from its substrate fMAS is oxidized by the coupling enzyme FDH, reducing one molecule of NAD^+ to NADH, which causes an increase in absorption at 340 nm. All assays are carried out at room temperature in a buffer of 50 mM HEPES, pH 7.2, 10 mM NaCl, 0.2 mg/mL BSA, In half-area 96-well microtiter plates (Corning). The reaction is initiated by adding a mixture of 0.5 Unit/mL FDH, 1 mM NAD^+, and fMAS at the desired concentration. To determine IC50 (the concentration needed to inhibit 50% of enzyme activity) values, PDF is pre-incubated for 10 minutes with varying concentrations of the inhibitor, and the deformylation reaction is initiated by the addition of reaction mixture containing 4 mM fMAS. The initial reaction velocity, y, is measured as the initial rate of absorption increase at […] using a SpectraMax plate reader (Molecular Devices, Sunnyvale, Calif.). The Inhibitor concentration [In] at which 50% of the enzyme activity is inhibited, IC50, is calculated using the following formula:
(§2) where yo is the reaction velocity in the absence of inhibitor. Solving this equation for IC50 at the [In] when y=yo/2 yields IC50. The IC50 is calculated based on a nonlinear least-square regression fit using a commercial software package (Deltapoint, Inc., Chicago, Ill.).
(§3) Peptide deformylase activity is essential for growth of S. pneumoniae. The mutants that are selected on NVP-LBM415 were not compromised for growth in vitro, therefore the mutations in defB that confer resistance to these compounds would not be expected to dramatically alter enzymatic activity. To test this hypothesis, the kinetics of peptide deformylase activity are determined using the substrate f-Met-Ala-Ser.
(§4) To investigate further, the IC50s and MICs of specific pairs of compounds differing only in this feature are determined.

[2] = tested on: Streptococcus pneumoniae PDF G70V mutant; assay: MIC, culture growth of S. pneumoniae PDF G70V mutant; format: cell-based; details: PDFG70VMUTANT
Method: (§5) Minimum inhibitory concentrations (MICs) are determined using the microdilution method In 96-well format plates. Compounds are suspended in DMSO at 5 or 10 mg/mL and stored at 4° C. until used. They are diluted in Mueller-Hinton Broth (MHB) or Trypticase Soy Broth (TSB) and used for MIC determination. The range of concentrations tested is 64-0.0625 μg/mL final concentration using a two-fold dilution system.
(§6) The inoculum is prepared from cells grown on Trypticase Soy Agar (TSA) and incubated overnight at 35° C., 5-10 colonies are used to inoculate MHB or TSB broths, and the culture is incubated overnight at 35° C. The overnight culture is diluted 1:10, incubated for 1 hour at 35° C., diluted to the appropriate inoculum size and applied to the wells containing broth and test compound. Inoculum sizes are 2×10^4 CFU/mL.
as §4

[3] = tested on: Streptococcus pneumoniae PDF G70D mutant; assay: MIC, culture growth of S. pneumoniae PDF G70D mutant; format: cell-based; details: PDFG70DMUTANT
Method: as §5, §6, §4

[4] = target: T2, Streptococcus pneumoniae peptide deformylase, wild type (W.T.) (Streptococcus pneumoniae serotype 4, UniProt Q9F2F0); assay: Inhibition of S. pneumoniae peptide deformylase activity, wild type enzyme; format: biochemical; details: PDF W.T.
T2 sequence (Q9F2F0 1-203): T1 sequence (Q9F2F0 1-203 G70D) with D70G
Method: as §1, §2, §3, §4

[5] = tested on: Streptococcus pneumoniae (wild type PDF); assay: MIC, culture growth of S. pneumoniae with wild type PDF; format: cell-based; details: PDF W.T.
Method: as §5, §6, §4

[6] = target: T3, Streptococcus pneumoniae peptide deformylase G70V mutant (Streptococcus pneumoniae serotype 4, UniProt Q9F2F0, G70V); assay: Inhibition of S. pneumoniae peptide deformylase activity, G70V mutant enzyme; format: biochemical; details: PDF G70V
T3 sequence (Q9F2F0 1-203 G70V): T1 sequence (Q9F2F0 1-203 G70D) with D70V
Method: as §1, §2, §3, §4

| Compound | IC50 [1] [pM] | MIC [2] [µg/mL] | MIC [3] [µg/mL] | IC50 [4] [pM] | MIC [5] [µg/mL] | IC50 [6] [pM] |
| --- | --- | --- | --- | --- | --- | --- |
| CCCC[C@H](CN(O)C=O)C(=O)N1C[C@@H](C(C)C)C[C@H]1C(=O)Nc1ccc(F)c[n+]1[O-] | 1380 ± 780 | 10.3 (≈ 23.5 µM) | 10.3 (≈ 23.4 µM) | 230 ± 40 | 1.42 ± 0.2 (≈ 3.24 µM) | 1780 |
| CCCC[C@H](CN(O)C=O)C(=O)N1C[C@H](C(C)C)C[C@H]1C(=O)Nc1ccc(F)cn1 | 250 | 1.43 (≈ 3.38 µM) | 1.07 (≈ 2.53 µM) | 270 ± 30 | 0.71 ± 0.1 (≈ 1.68 µM) | 700 |
| O=CN(O)C[C@@H](CC1CCCC1)C(=O)N1C[C@H](F)C[C@H]1C(=O)Nc1cnccn1 | 340 | 0.33 (≈ 0.81 µM) | 0.25 (≈ 0.614 µM) | 250 ± 40 | 0.16 ± 0.1 (≈ 0.393 µM) | 500 |
| CCCC[C@H](CN(O)C=O)C(=O)N1C[C@@H](C(C)C)C[C@H]1C(=O)Nc1ccc(F)cn1 | 460 | 2.86 (≈ 6.77 µM) | 1.57 (≈ 3.72 µM) | 310 ± 40 | 1.43 ± 0.2 (≈ 3.38 µM) | 1010 |
| O=CN(O)C[C@@H](CC1CCCC1)C(=O)N1C[C@H](F)C[C@H]1C(=O)Nc1cncc[n+]1[O-] | 910 | 2.67 (≈ 6.31 µM) | 1 (≈ 2.36 µM) | 370 ± 20 | 0.29 ± 0.11 (≈ 0.685 µM) | 2050 |
| CCCC[C@H](CN(O)C=O)C(=O)N1C[C@H](C(C)C)C[C@H]1C(=O)Nc1ccc(F)c[n+]1[O-] | 1190 | 6.3 (≈ 14.4 µM) | 5.14 (≈ 11.7 µM) | 310 ± 30 | 0.64 ± 0.09 (≈ 1.46 µM) | 1560 |
| CCCC[C@H](CN(O)C=O)C(=O)N1CCC[C@H]1C(=O)Nc1ccc(F)c[n+]1[O-] [reference compound] | 1280 | 5.8 (≈ 14.6 µM) | 6.44 (≈ 16.2 µM) | 310 ± 30 | 0.45 ± 0.07 (≈ 1.14 µM) | 1350 |
